According to ChEMBL document CHEMBL1201862, “PubChem BioAssay data set” (2004):
The source made the active and inactive calls.

System: not listed separately
Test: Luminescence Cell-Based Dose Confirmation HTS to Identify Activators of 5'UTR Stem-Loop Driven Alpha-Synuclein mRNA Translation in H4 Neuroglioblastoma Cells. [Related pubchem assays: 1829 (Project Summary), 1814 (Primary HTS)]
Format: functional
Details: not given

Compound	EC50
Cn1c(C(=O)N2COCC2(C)C)cc2c(=O)n3ccccc3nc21	17.2 µM (active)
O=C(Cn1c(=S)nc2ccccn21)N1CCc2ccccc2C1	5.67 µM (active)
COc1ccc2c(c1)C(=O)CC(c1ccc3c(c1)OCCO3)O2 (stereo unspecified)	7.88 µM (active)
O=C(O)c1nc2ccccc2nc1C(=O)O	11.1 µM (active)
Oc1c2nc3ccccc3c-2ncn1CCC1=CCCCC1	43.3 µM (active)
Cc1cccc(NC(=O)c2cnc3sccn3c2=O)n1	0.125 µM (active)
CC1CCC(NC(=O)c2cc3c(=O)n(C)c4ccccc4c3n2C)CC1 (stereo unspecified)	7.84 µM (active)
CSc1nnc2c(n1)OC(C)N(C(=O)c1ccccc1)c1ccccc1-2 (stereo unspecified)	15.4 µM (active)
Oc1c(/C=N/c2ccc(Cl)cn2)sc2ccccc12	15.4 µM (active)

Target: FAD-linked sulfhydryl oxidase ALR (Homo sapiens, UniProt P55789)
Sequence (P55789 whole entry): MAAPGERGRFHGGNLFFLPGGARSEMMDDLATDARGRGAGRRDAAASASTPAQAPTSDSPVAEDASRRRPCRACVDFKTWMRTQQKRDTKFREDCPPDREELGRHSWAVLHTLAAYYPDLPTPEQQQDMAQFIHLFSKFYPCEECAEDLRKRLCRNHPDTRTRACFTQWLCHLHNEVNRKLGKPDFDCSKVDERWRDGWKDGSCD
Test: inhibitors of human ALR sulfhydryl oxidase, dose response, biochemical, H2O2 detection, luminescence, cherry-pick (AID 493248)
Details: not given

Compound	AC50
CCN(CCNC(=O)C1CCN(S(=O)(=O)c2cccc3nsnc23)CC1)c1ccccc1	4.69 µM (active)
O=C(Nc1ccc(Nc2ccccc2)cc1)c1ccco1	5.94 µM (active)
COc1ccc(-c2[nH]nc(C)c2-c2ccccc2OC)c(O)c1	< 0.005 µM (active)
CCCn1c(S)nnc1C(C)NC(=O)c1ccccc1 (stereo unspecified)	3 µM (active)
O=C(CN1C(=O)NC2(CCCC2)C1=O)Nc1cc(Cl)ccc1N1CCCC1	0.244 µM (active)
Cn1c(-c2ccc3c(c2)OCO3)cnc1NCc1cccc(O)c1	2.49 µM (active)
COc1ccc(C(=O)N2CCN=C2SCc2cccnc2)c(OC)c1	0.067 µM (active)
CC(C)=NNc1nc(-c2ccc(N3C(=O)CCC3=O)cc2)cs1	0.119 µM (active)
O=C(CN1CCN(c2ccccc2O)CC1)NCCCc1ccccc1	0.301 µM (active)
C=CCn1c(S)nnc1C(C)NC(=O)c1cccc(C)c1 (stereo unspecified)	4.01 µM (active)

Target: T1, Cytochrome P450 1A2 (Homo sapiens, UniProt P05177);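 also: PubChem cytochrome P450 panel assay, CYP1A2 panel member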
T1 sequence (P05177 whole entry): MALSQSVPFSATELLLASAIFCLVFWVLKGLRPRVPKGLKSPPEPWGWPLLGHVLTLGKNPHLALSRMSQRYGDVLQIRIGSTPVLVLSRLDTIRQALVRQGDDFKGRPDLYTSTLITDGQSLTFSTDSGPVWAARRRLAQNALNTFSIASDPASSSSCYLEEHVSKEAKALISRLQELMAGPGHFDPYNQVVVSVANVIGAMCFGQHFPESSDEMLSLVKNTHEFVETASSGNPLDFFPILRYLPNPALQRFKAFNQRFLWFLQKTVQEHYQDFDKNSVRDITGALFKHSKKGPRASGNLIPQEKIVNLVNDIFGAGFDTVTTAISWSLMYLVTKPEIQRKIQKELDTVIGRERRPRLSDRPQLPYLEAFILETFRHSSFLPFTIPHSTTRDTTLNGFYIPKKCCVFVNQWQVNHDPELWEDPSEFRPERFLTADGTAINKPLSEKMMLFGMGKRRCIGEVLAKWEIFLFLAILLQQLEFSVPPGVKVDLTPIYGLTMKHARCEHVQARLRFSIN
Details: not given

Compound	AC50
CSc1nnc2c(n1)OC(C)N(C(=O)c1ccccc1)c1ccccc1-2 (stereo unspecified)	10 µM (inconclusive)

Target: Cytochrome P450 2C9 (Homo sapiens, UniProt P11712)
Sequence (P11712 whole entry): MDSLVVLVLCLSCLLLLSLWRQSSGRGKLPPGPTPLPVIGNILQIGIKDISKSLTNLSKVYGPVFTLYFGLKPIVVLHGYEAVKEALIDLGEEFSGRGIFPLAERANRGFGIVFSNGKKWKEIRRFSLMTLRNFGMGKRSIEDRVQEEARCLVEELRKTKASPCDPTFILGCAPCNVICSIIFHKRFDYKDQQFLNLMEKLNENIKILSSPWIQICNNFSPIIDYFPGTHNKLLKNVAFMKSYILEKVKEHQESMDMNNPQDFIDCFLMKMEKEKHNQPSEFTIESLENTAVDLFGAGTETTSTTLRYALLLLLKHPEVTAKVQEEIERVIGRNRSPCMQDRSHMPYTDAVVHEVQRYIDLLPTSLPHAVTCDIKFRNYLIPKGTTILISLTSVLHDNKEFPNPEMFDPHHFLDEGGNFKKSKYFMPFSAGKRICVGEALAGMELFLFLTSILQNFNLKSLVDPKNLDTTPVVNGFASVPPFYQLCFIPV
Details: not given

Compound	AC50
Cn1c(C(=O)N2COCC2(C)C)cc2c(=O)n3ccccc3nc21	5.01 µM (inconclusive)
CSc1nnc2c(n1)OC(C)N(C(=O)c1ccccc1)c1ccccc1-2 (stereo unspecified)	31.6 µM (inconclusive)

System: H4
Test: Luminescence Cell-Based Dose Response HTS to Identify Activators of 5'UTR Stem-Loop Driven Prion Protein mRNA Translation in H4 Neuroglioblastoma Cells. [Related pubchem assays: 1829 (Project Summary), 1814 (Primary HTS)]
Format: functional
Details: Homo sapiens

Compound	EC50
Cn1c(C(=O)N2COCC2(C)C)cc2c(=O)n3ccccc3nc21	61.7 µM (active)
O=C(Cn1c(=S)nc2ccccn21)N1CCc2ccccc2C1	10.3 µM (active)
COc1ccc2c(c1)C(=O)CC(c1ccc3c(c1)OCCO3)O2 (stereo unspecified)	13.9 µM (active)
O=C(O)c1nc2ccccc2nc1C(=O)O	> 120 µM (not active)
Oc1c2nc3ccccc3c-2ncn1CCC1=CCCCC1	1.72 µM (active)
Cc1cccc(NC(=O)c2cnc3sccn3c2=O)n1	63.9 µM (active)
CC1CCC(NC(=O)c2cc3c(=O)n(C)c4ccccc4c3n2C)CC1 (stereo unspecified)	> 120 µM (not active)
CSc1nnc2c(n1)OC(C)N(C(=O)c1ccccc1)c1ccccc1-2 (stereo unspecified)	> 120 µM (not active)
Oc1c(/C=N/c2ccc(Cl)cn2)sc2ccccc12	15.5 µM (active)

Target: T2, Rac GTPase-activating protein 1 (Homo sapiens, UniProt Q9H0H5)
T2 sequence (Q9H0H5 whole entry): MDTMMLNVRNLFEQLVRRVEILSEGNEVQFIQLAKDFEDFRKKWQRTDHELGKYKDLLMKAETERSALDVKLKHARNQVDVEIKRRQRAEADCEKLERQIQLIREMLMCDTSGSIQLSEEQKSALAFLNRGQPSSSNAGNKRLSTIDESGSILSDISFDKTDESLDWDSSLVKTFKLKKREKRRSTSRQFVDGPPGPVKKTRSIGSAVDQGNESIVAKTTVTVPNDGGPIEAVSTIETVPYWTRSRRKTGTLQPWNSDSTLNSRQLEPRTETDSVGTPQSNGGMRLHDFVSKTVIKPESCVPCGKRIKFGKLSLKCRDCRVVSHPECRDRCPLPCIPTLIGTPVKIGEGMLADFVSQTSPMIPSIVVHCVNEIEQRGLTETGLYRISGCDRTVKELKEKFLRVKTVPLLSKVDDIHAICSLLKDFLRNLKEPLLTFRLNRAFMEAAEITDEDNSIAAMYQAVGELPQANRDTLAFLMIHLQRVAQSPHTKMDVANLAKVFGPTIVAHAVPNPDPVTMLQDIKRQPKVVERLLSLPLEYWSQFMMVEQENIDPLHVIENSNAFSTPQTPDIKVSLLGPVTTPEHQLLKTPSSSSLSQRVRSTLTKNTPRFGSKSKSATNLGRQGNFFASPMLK
Test: MgcRacGAP GTPase-activating activity inhibitors, confirmation, biochemical, ADP Hunter fluorescence, primary and confirmatory (AID 624330)
Format: functional
Details: not given

Compound	IC50
Cc1cnc(NC(=O)CN2CCN(c3ccccc3F)CC2)s1	150 µM (active)
CCOc1cc(N2CCOCC2)c(OCC)cc1NCC(=O)N1CCN(Cc2ccccc2)CC1	64.2 µM (active)
CC(C(=O)Nc1ccccc1C(F)(F)F)N1CCN(C)CC1 (stereo unspecified)	163 µM (active)
CCN1CCN(CC(=O)N/N=C/c2cc(Br)cs2)CC1	94.2 µM (active)
O=C(CN1CCCCCC1)Nc1nc2ccccc2s1	173 µM (active)

System: not listed separately
Test: Luminescence Cell-Based Dose Response HTS to Identify Activators of Luciferase Translation or Activity in H4 […] Cells. [Related pubchem assays: 1829 (Project Summary), 1814 (Primary HTS)]
Format: functional
Details: not given

Compound	EC50
Cn1c(C(=O)N2COCC2(C)C)cc2c(=O)n3ccccc3nc21	12 µM (active)
O=C(Cn1c(=S)nc2ccccn21)N1CCc2ccccc2C1	30.2 µM (active)
COc1ccc2c(c1)C(=O)CC(c1ccc3c(c1)OCCO3)O2 (stereo unspecified)	42 µM (active)
O=C(O)c1nc2ccccc2nc1C(=O)O	25.5 µM (active)
Oc1c2nc3ccccc3c-2ncn1CCC1=CCCCC1	46.6 µM (active)
Cc1cccc(NC(=O)c2cnc3sccn3c2=O)n1	32.9 µM (active)
CC1CCC(NC(=O)c2cc3c(=O)n(C)c4ccccc4c3n2C)CC1 (stereo unspecified)	14.3 µM (active)
CSc1nnc2c(n1)OC(C)N(C(=O)c1ccccc1)c1ccccc1-2 (stereo unspecified)	> 120 µM (not active)
Oc1c(/C=N/c2ccc(Cl)cn2)sc2ccccc12	12.3 µM (active)

System: not listed separately
Test: HEp-2 cell cytotoxicity, dose response, cytotoxicity control for RSV inhibitor project, HTS (AID 2410)
Format: functional
Details: human respiratory syncytial virus

Compound	CC50
O=C(Nc1ccc(Nc2ccccc2)cc1)c1ccco1	45.1 µM (active)
